Experimental data reported in the NIST ThermoML archive (doi:10.1016/j.fluid.2011.07.014).
± gives the expanded uncertainty stated by the source.

Settings: Liquid, Ebulliometric method (Recirculating still)

CC(C)=C(C)C [2,3-dimethyl-2-butene]
Settings	vapor or sublimation pressure [kPa]
336.5 K	73.5 ± 1.1
338.2 K	77.5 ± 1.1
340.6 K	84.2 ± 1.1
342.65 K	90.2 ± 1.1
344.2 K	94.7 ± 1.1
346.24 K	101.2 ± 1.1
347.65 K	105.3 ± 1.2
350.1 K	113.9 ± 1.2
353.46 K	125.5 ± 1.2
355.35 K	133.3 ± 1.2
357.22 K	140.4 ± 1.3
362.8 K	164.8 ± 1.3
365.76 K	179.5 ± 1.3
368.05 K	190.9 ± 1.4
370.36 K	202.8 ± 1.4
373.18 K	218.8 ± 1.4
375.2 K	230.4 ± 1.5
376.5 K	238.5 ± 1.5
379.15 K	255.1 ± 1.5
381.62 K	271.2 ± 1.6
383.05 K	281.3 ± 1.6
384.7 K	292.1 ± 1.6
386.65 K	306.8 ± 1.7
388.2 K	318.4 ± 1.7
